Reference: paper PMC9081605, “A High-Throughput Toxicity Screen of 42 Per- and Polyfluoroalkyl Substances (PFAS) and Functional Assessment of Migration and Gene Expression in Human Placental Trophoblast Cells” (Frontiers in Toxicology, 2022)

System: JEG-3 cells
Experiment: Gene expression, custom NanoString code set of 46 genes
Type: cell-based, human
Protocol: JEG-3 cells were seeded at a density of 80,000 cells per well in six well plates and allowed to adhere overnight (24 h). The following day, media was removed and replaced with exposure media, then returned to the incubator for 24 h. The test compounds included non-cytotoxic concentrations of PFOA (0, 1, and 100 µM) and GenX (0, 3, 300 µM). These test compounds were selected a priori due to their high public health relevance. Each 6 well plate contained the three concentrations for either PFOA or GenX, with each condition in technical duplicate. Plates containing these PFOA or GenX exposure conditions were replicated three times (N = 3). After 24 h, exposure media was aspirated and cells were washed in ice cold 1xPBS, which was then aspirated. Each well received 500 µl of TRIzol reagent (Thermo Fisher Scientific, MA, United States) and cells were harvested in the TRIzol using a cell scraper. Technical duplicate wells within a plate were combined to generate a single sample of ∼1,000 µl. RNA was isolated from the resulting cellular homogenate using RNeasy Mini Kits (Qiagen, Hilden, Germany). Isolated RNA quality was validated and concentration determined using a NanoDrop 2000 (Thermo Fisher Scientific, MA, United States). 100 ng of mRNA from each sample was then analyzed using a custom gene expression code set (NanoString, Seattle, WA, United States). The custom code set included 46 genes selected for their downstream involvement in placental development (e.g., WNT4), endocrine signaling (e.g., CYP19A1), fetal growth/nutrient sensing (e.g., IGF2), inflammation (e.g., IL6), oxidative stress (e.g., SOD1, GPX1), and xenobiotic transport/metabolism (e.g., ABCG2, MRP3).
Gene expression data were quantified using the nCounter Digital Analyzer (NanoString, Seattle, WA, United States) and raw and adjusted counts were generated with nSolver (v4.0) software (NanoString, Seattle, WA, United States). Data were adjusted utilizing the manufacturer’s positive and negative experimental control probes, as well as housekeeping genes (ACTA2, ACTB, B2M, LDHA, RNA18S5, and ROLYR2L). All samples passed nSolver’s initial QA/QC controls and replicates were very well correlated with R ^2 values greater than 0.99. Adjusted data were then imported into Partek v7.0 (St. Louis, MO, United States), log2 transformed and quantile normalized for further QA/QC and statistical analyses. Genes with mRNA counts below the detection threshold of 20 were removed due to suboptimal probe hybridization (N = 2 genes for GenX; GH2 and IGFBP5). Fold change values were analyzed by ANOVA with post hoc false discovery rate adjustment (FDR) of p < 0.1. Normalized gene expression values were visualized using pheatmap with Euclidean clustering of genes and concentration groups ([Kolde and Kolde, 2015]).

For N.O=C(O)C(F)(OC(F)(F)C(F)(F)C(F)(F)F)C(F)(F)F (centres unmarked) [Ammonium perfluoro-2-methyl-3-oxahexanoate], the “11BHSD2 gene expression, fold change over untreated control” value (3 µM, 24 h) was -1.00, the “17BHSD1 gene expression, fold change over untreated control” value (3 µM, 24 h) was -1.11 and the “AHR gene expression, fold change over untreated control” value (3 µM, 24 h) was 1.04. For the same compound, the “AHRR gene expression, fold change over untreated control” value (3 µM, 24 h) was 1.18, the “CAT gene expression, fold change over untreated control” value (3 µM, 24 h) was 1.02 and the “CGB5 gene expression, fold change over untreated control” value (3 µM, 24 h) was 1.08. The “COX2 gene expression, fold change over untreated control” value (3 µM, 24 h) was 1.27, the “CTNNB1 gene expression, fold change over untreated control” value (3 µM, 24 h) was 1.00 and the “CYP1A1 gene expression, fold change over untreated control” value (3 µM, 24 h) was -1.22. For the same compound, the “CYP2E1 gene expression, fold change over untreated control” value (3 µM, 24 h) was -1.26, the “CYP3A5 gene expression, fold change over untreated control” value (3 µM, 24 h) was 1.19 and the “CYP3A7 gene expression, fold change over untreated control” value (3 µM, 24 h) was 1.01. For the same compound, the “CYP19A1 gene expression, fold change over untreated control” value (3 µM, 24 h) was -1.03, the “EGFR gene expression, fold change over untreated control” value (3 µM, 24 h) was 1.00 and the “ENG gene expression, fold change over untreated control” value (3 µM, 24 h) was 1.04. The “ESRRA gene expression, fold change over untreated control” value (3 µM, 24 h) was 1.00, the “ESRRG gene expression, fold change over untreated control” value (3 µM, 24 h) was -1.16 and the “GHR gene expression, fold change over untreated control” value (3 µM, 24 h) was 1.15. For the same compound, the “GPER1 gene expression, fold change over untreated control” value (3 µM, 24 h) was -1.02, the “HIF1A gene expression, fold change over untreated control” value (3 µM, 24 h) was 1.00 and the “IGF2 gene expression, fold change over untreated control” value (3 µM, 24 h) was 1.00. For the same compound, the “IGFR1 gene expression, fold change over untreated control” value (3 µM, 24 h) was -1.02, the “IGFR2 gene expression, fold change over untreated control” value (3 µM, 24 h) was 1.04 and the “IL6 gene expression, fold change over untreated control” value (3 µM, 24 h) was -1.23. For the same compound, the “MRP1 gene expression, fold change over untreated control” value (3 µM, 24 h) was -1.05, the “MRP2 gene expression, fold change over untreated control” value (3 µM, 24 h) was 1.05 and the “MRP3 gene expression, fold change over untreated control” value (3 µM, 24 h) was 1.07. The “NFKB1 gene expression, fold change over untreated control” value (3 µM, 24 h) was 1.03, the “NFKB2 gene expression, fold change over untreated control” value (3 µM, 24 h) was -1.07 and the “NR3C1 gene expression, fold change over untreated control” value (3 µM, 24 h) was 1.00. For the same compound, the “PGF gene expression, fold change over untreated control” value (3 µM, 24 h) was 1.00, the “PMM1 gene expression, fold change over untreated control” value (3 µM, 24 h) was -1.05 and the “ROLYR2L gene expression, fold change over untreated control” value (3 µM, 24 h) was 1.00. For the same compound, the “SLC2A1 gene expression, fold change over untreated control” value (3 µM, 24 h) was -1.04, the “SOD1 gene expression, fold change over untreated control” value (3 µM, 24 h) was 1.00 and the “TGFB1 gene expression, fold change over untreated control” value (3 µM, 24 h) was -1.04. For the same compound, the “VEGFA gene expression, fold change over untreated control” value (3 µM, 24 h) was 1.04, the “VEGFB gene expression, fold change over untreated control” value (3 µM, 24 h) was 1.00 and the “WNT4 gene expression, fold change over untreated control” value (3 µM, 24 h) was 1.08. For the same compound, the “WNT6 gene expression, fold change over untreated control” value (3 µM, 24 h) was -1.09, the “WNT7B gene expression, fold change over untreated control” value (3 µM, 24 h) was 1.07 and the “mTOR gene expression, fold change over untreated control” value (3 µM, 24 h) was 1.00. For the same compound, the “11BHSD2 gene expression, fold change over untreated control” value (300 µM, 24 h) was -1.01, the “AHR gene expression, fold change over untreated control” value (300 µM, 24 h) was -1.04 and the “AHRR gene expression, fold change over untreated control” value (300 µM, 24 h) was 1.19. The “CAT gene expression, fold change over untreated control” value (300 µM, 24 h) was -1.05, the “CGB5 gene expression, fold change over untreated control” value (300 µM, 24 h) was 1.11 and the “COX2 gene expression, fold change over untreated control” value (300 µM, 24 h) was 1.27. For the same compound, the “CYP1A1 gene expression, fold change over untreated control” value (300 µM, 24 h) was -1.16, the “CYP2E1 gene expression, fold change over untreated control” value (300 µM, 24 h) was 1.04 and the “CYP3A5 gene expression, fold change over untreated control” value (300 µM, 24 h) was -1.83. For the same compound, the “CYP3A7 gene expression, fold change over untreated control” value (300 µM, 24 h) was -1.25, the “CYP19A1 gene expression, fold change over untreated control” value (300 µM, 24 h) was -1.29 and the “ENG gene expression, fold change over untreated control” value (300 µM, 24 h) was -1.04. The “ESRRA gene expression, fold change over untreated control” value (300 µM, 24 h) was 1.19, the “ESRRG gene expression, fold change over untreated control” value (300 µM, 24 h) was 1.00 and the “GHR gene expression, fold change over untreated control” value (300 µM, 24 h) was 1.11. For the same compound, the “HIF1A gene expression, fold change over untreated control” value (300 µM, 24 h) was 1.05, the “IGFR1 gene expression, fold change over untreated control” value (300 µM, 24 h) was -1.10 and the “IGFR2 gene expression, fold change over untreated control” value (300 µM, 24 h) was -1.00. The “IL6 gene expression, fold change over untreated control” value (300 µM, 24 h) was -1.51, the “MRP1 gene expression, fold change over untreated control” value (300 µM, 24 h) was 1.14 and the “MRP2 gene expression, fold change over untreated control” value (300 µM, 24 h) was 1.00. The “MRP3 gene expression, fold change over untreated control” value (300 µM, 24 h) was 1.44, the “NFKB1 gene expression, fold change over untreated control” value (300 µM, 24 h) was 1.03 and the “NFKB2 gene expression, fold change over untreated control” value (300 µM, 24 h) was -1.04. For the same compound, the “NR3C1 gene expression, fold change over untreated control” value (300 µM, 24 h) was 1.00, the “PGF gene expression, fold change over untreated control” value (300 µM, 24 h) was -1.00 and the “PMM1 gene expression, fold change over untreated control” value (300 µM, 24 h) was 1.05. For the same compound, the “ROLYR2L gene expression, fold change over untreated control” value (300 µM, 24 h) was 1.00, the “SLC2A1 gene expression, fold change over untreated control” value (300 µM, 24 h) was -1.13 and the “TGFB1 gene expression, fold change over untreated control” value (300 µM, 24 h) was 1.00. The “VEGFA gene expression, fold change over untreated control” value (300 µM, 24 h) was 1.27, the “VEGFB gene expression, fold change over untreated control” value (300 µM, 24 h) was -1.01 and the “WNT4 gene expression, fold change over untreated control” value (300 µM, 24 h) was 1.20. For the same compound, the “WNT6 gene expression, fold change over untreated control” value (300 µM, 24 h) was -1.09, the “WNT7B gene expression, fold change over untreated control” value (300 µM, 24 h) was -1.12 and the “mTOR gene expression, fold change over untreated control” value (300 µM, 24 h) was 1.00. For the same compound, the “number of genes with significantly altered expression (of 46)” value (300 µM, 24 h, FDR p < 0.1) was 15 genes and the “lowest concentration inducing significant dysregulated expression of placental genes” value (after 24 h of exposure) was 3 µM.
